Experimental data taken from the supplement of paper PMC10307832.

How the values were obtained:
Assay in all cases: relative viability (nuclei count vs DMSO), 5 days (fraction); higher = more cells survive
ChaGo-K-1 = system: ChaGo-K-1
In short: (§1)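 Five library-drug doses in √10 steps were combined with a fixed anchor-drug dose, or a single drug was given alone, by pin tool to lung cancer cell lines in 1536-well plates the day after seeding. Nuclei were stained and counted after 5 days. Relative viability is the nuclei count in treated wells over that in vehicle wells, taken as the median of duplicate plates.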

HCC-78 = system: HCC-78
In short: as §1

HCC-827 = system: HCC-827
In short: as §1

LCLC-97TM1 = system: LCLC-97TM1
In short: as §1

LK-2 = system: LK-2
In short: as §1

LOU-NH91 = system: LOU-NH91
In short: as §1

NCI-H1355 = system: NCI-H1355
In short: as §1

NCI-H1395 = system: NCI-H1395
In short: as §1

NCI-H1755 = system: NCI-H1755
In short: as §1

NCI-H1792 = system: NCI-H1792
In short: as §1

NCI-H1993 = system: NCI-H1993
In short: as §1

NCI-H2009 = system: NCI-H2009
In short: as §1

NCI-H2085 = system: NCI-H2085
In short: as §1

NCI-H2228 = system: NCI-H2228
In short: as §1

NCI-H2342 = system: NCI-H2342
In short: as §1

NCI-H2405 = system: NCI-H2405
In short: as §1

NCI-H441 = system: NCI-H441
In short: as §1

NCI-H520 = system: NCI-H520
In short: as §1

NCI-H522 = system: NCI-H522
In short: as §1

NCI-H647 = system: NCI-H647
In short: as §1

NCI-H661 = system: NCI-H661
In short: as §1

PC-3 [JPC-3] = system: PC-3 [JPC-3]
In short: as §1

SK-MES-1 = system: SK-MES-1
In short: as §1

For `C=C1C(=O)O[C@@H](CCCCCCCC)[C@@H]1C(=O)O` [C-75] + CC(=O)c1c(C)c2cnc(Nc3ccc(N4CCNCC4)cn3)nc2n(C2CCCC2)c1=O [Palbociclib] (partner 0.5 µM), the relative viability (ChaGo-K-1; first compound 0.08 µM) was 0.87, the relative viability (ChaGo-K-1; first compound 0.253 µM) was 0.894 and the relative viability (ChaGo-K-1; first compound 0.8 µM) was 0.888. The relative viability (ChaGo-K-1; first compound 2.53 µM) was 0.519, the relative viability (ChaGo-K-1; first compound 8 µM) was 0.915 and the relative viability (HCC-78; first compound 0.08 µM) was 0.476. The relative viability (HCC-78; first compound 0.253 µM) was 0.469, the relative viability (HCC-78; first compound 0.8 µM) was 0.514 and the relative viability (HCC-78; first compound 2.53 µM) was 0.459. For the same compound, the relative viability (HCC-78; first compound 8 µM) was 0.461, the relative viability (HCC-827; first compound 0.253 µM) was 0.519 and the relative viability (HCC-827; first compound 0.8 µM) was 0.5. It also gave a relative viability (HCC-827; first compound 8 µM) of 0.494, a relative viability (LCLC-97TM1; first compound 0.08 µM) of 0.225 and a relative viability (LCLC-97TM1; first compound 0.253 µM) of 0.261. It also gave a relative viability (LCLC-97TM1; first compound 0.8 µM) of 0.177, a relative viability (LCLC-97TM1; first compound 2.53 µM) of 0.18 and a relative viability (LCLC-97TM1; first compound 8 µM) of 0.239. The relative viability (LK-2; first compound 0.08 µM) was 0.779, the relative viability (LK-2; first compound 0.253 µM) was 0.754 and the relative viability (LK-2; first compound 0.8 µM) was 0.723. For the same compound, the relative viability (LK-2; first compound 2.53 µM) was 0.495, the relative viability (LK-2; first compound 8 µM) was 0.573 and the relative viability (LOU-NH91; first compound 0.08 µM) was 0.534. The relative viability (LOU-NH91; first compound 0.253 µM) was 0.536, the relative viability (LOU-NH91; first compound 0.8 µM) was 0.504 and the relative viability (LOU-NH91; first compound 8 µM) was 0.464. The relative viability (NCI-H1355; first compound 0.08 µM) was 0.402, the relative viability (NCI-H1355; first compound 0.253 µM) was 0.388 and the relative viability (NCI-H1355; first compound 0.8 µM) was 0.428. For the same compound, the relative viability (NCI-H1355; first compound 2.53 µM) was 0.364, the relative viability (NCI-H1355; first compound 8 µM) was 0.463 and the relative viability (NCI-H1395; first compound 0.08 µM) was 0.586. For the same compound, the relative viability (NCI-H1395; first compound 0.253 µM) was 0.584, the relative viability (NCI-H1395; first compound 2.53 µM) was 0.588 and the relative viability (NCI-H1395; first compound 8 µM) was 0.597. It also gave a relative viability (NCI-H1755; first compound 0.08 µM) of 0.417, a relative viability (NCI-H1755; first compound 0.253 µM) of 0.428 and a relative viability (NCI-H1755; first compound 0.8 µM) of 0.42. The relative viability (NCI-H1755; first compound 2.53 µM) was 0.378, the relative viability (NCI-H1755; first compound 8 µM) was 0.408 and the relative viability (NCI-H1792; first compound 0.08 µM) was 0.67. The relative viability (NCI-H1792; first compound 0.253 µM) was 0.656, the relative viability (NCI-H1792; first compound 0.8 µM) was 0.686 and the relative viability (NCI-H1792; first compound 2.53 µM) was 0.381. The relative viability (NCI-H1792; first compound 8 µM) was 0.65, the relative viability (NCI-H1993; first compound 0.08 µM) was 0.618 and the relative viability (NCI-H1993; first compound 0.253 µM) was 0.778. For the same compound, the relative viability (NCI-H1993; first compound 0.8 µM) was 0.719, the relative viability (NCI-H1993; first compound 2.53 µM) was 0.553 and the relative viability (NCI-H1993; first compound 8 µM) was 0.642. The relative viability (NCI-H2009; first compound 0.08 µM) was 0.24, the relative viability (NCI-H2009; first compound 0.253 µM) was 0.192 and the relative viability (NCI-H2009; first compound 0.8 µM) was 0.19. It also gave a relative viability (NCI-H2009; first compound 2.53 µM) of 0.171, a relative viability (NCI-H2009; first compound 8 µM) of 0.216 and a relative viability (NCI-H2085; first compound 0.08 µM) of 0.491. It also gave a relative viability (NCI-H2085; first compound 0.253 µM) of 0.403, a relative viability (NCI-H2085; first compound 0.8 µM) of 0.443 and a relative viability (NCI-H2085; first compound 2.53 µM) of 0.436. For the same compound, the relative viability (NCI-H2085; first compound 8 µM) was 0.468, the relative viability (NCI-H2228; first compound 0.08 µM) was 0.743 and the relative viability (NCI-H2228; first compound 0.253 µM) was 0.988. For the same compound, the relative viability (NCI-H2228; first compound 0.8 µM) was 0.589, the relative viability (NCI-H2228; first compound 2.53 µM) was 0.7 and the relative viability (NCI-H2228; first compound 8 µM) was 0.681. It also gave a relative viability (NCI-H2342; first compound 0.08 µM) of 0.546, a relative viability (NCI-H2342; first compound 0.253 µM) of 0.488 and a relative viability (NCI-H2342; first compound 0.8 µM) of 0.551. For the same compound, the relative viability (NCI-H2342; first compound 2.53 µM) was 0.541, the relative viability (NCI-H2342; first compound 8 µM) was 0.571 and the relative viability (NCI-H2405; first compound 0.08 µM) was 0.523. The relative viability (NCI-H2405; first compound 0.253 µM) was 0.384, the relative viability (NCI-H2405; first compound 0.8 µM) was 0.557 and the relative viability (NCI-H2405; first compound 2.53 µM) was 0.423. The relative viability (NCI-H2405; first compound 8 µM) was 0.515, the relative viability (NCI-H441; first compound 0.08 µM) was 0.255 and the relative viability (NCI-H441; first compound 0.253 µM) was 0.255. For the same compound, the relative viability (NCI-H441; first compound 0.8 µM) was 0.205, the relative viability (NCI-H441; first compound 8 µM) was 0.184 and the relative viability (NCI-H520; first compound 0.08 µM) was 0.186. It also gave a relative viability (NCI-H520; first compound 0.253 µM) of 0.238, a relative viability (NCI-H520; first compound 0.8 µM) of 0.225 and a relative viability (NCI-H520; first compound 2.53 µM) of 0.225. The relative viability (NCI-H520; first compound 8 µM) was 0.211, the relative viability (NCI-H522; first compound 0.08 µM) was 1.27 and the relative viability (NCI-H522; first compound 0.253 µM) was 0.989. For the same compound, the relative viability (NCI-H522; first compound 0.8 µM) was 1.06, the relative viability (NCI-H522; first compound 2.53 µM) was 0.698 and the relative viability (NCI-H522; first compound 8 µM) was 0.779. It also gave a relative viability (NCI-H647; first compound 0.08 µM) of 0.312, a relative viability (NCI-H647; first compound 0.253 µM) of 0.384 and a relative viability (NCI-H647; first compound 0.8 µM) of 0.394. For the same compound, the relative viability (NCI-H647; first compound 2.53 µM) was 0.239, the relative viability (NCI-H647; first compound 8 µM) was 0.236 and the relative viability (NCI-H661; first compound 0.08 µM) was 0.429. For the same compound, the relative viability (NCI-H661; first compound 0.253 µM) was 0.41, the relative viability (NCI-H661; first compound 0.8 µM) was 0.378 and the relative viability (NCI-H661; first compound 2.53 µM) was 0.374. The relative viability (NCI-H661; first compound 8 µM) was 0.394, the relative viability (PC-3 [JPC-3]; first compound 0.08 µM) was 0.54 and the relative viability (PC-3 [JPC-3]; first compound 0.253 µM) was 0.509. It also gave a relative viability (PC-3 [JPC-3]; first compound 0.8 µM) of 0.515, a relative viability (PC-3 [JPC-3]; first compound 2.53 µM) of 0.502 and a relative viability (PC-3 [JPC-3]; first compound 8 µM) of 0.568. The relative viability (SK-MES-1; first compound 0.08 µM) was 0.321, the relative viability (SK-MES-1; first compound 0.253 µM) was 0.349 and the relative viability (SK-MES-1; first compound 0.8 µM) was 0.309. It also gave a relative viability (SK-MES-1; first compound 2.53 µM) of 0.264 and a relative viability (SK-MES-1; first compound 8 µM) of 0.292.
